This note sets out measurements from ChEMBL document CHEMBL6092149, “Discovery of 1(2H)-phthalazinone and 1(2H)-isoquinolinone derivatives as potent hematopoietic progenitor kinase 1 (HPK1) inhibitors” (Eur J Med Chem, 2024).

The term half-life denotes the time needed for the level to fall by half in the phase considered. One may read the inhibition as the share of the control response that was lost under treatment. What is called IC50 is the point on the concentration scale where inhibition reaches its midpoint.

A short description of data set [1]: Half life in overnight fasted rat at 1 mg/kg, iv. It is filed as ADME, organism-based. Particulars: in vivo.
The target of data set [2] is Mitogen-activated protein kinase 1 (Homo sapiens) (UniProt P28482). Description: Inhibition of ERK2 (unknown origin) at 1000 nM incubated for 1 hrs by active site-directed competition binding assay relative to control.
In data set [3] the target is Mitogen-activated protein kinase 8 (Homo sapiens) (UniProt P45983). Put plainly: Inhibition of JNK1 (unknown origin) at 1000 nM incubated for 1 hrs by active site-directed competition binding assay relative to control.
Data set [4] addresses Mitogen-activated protein kinase 9 (Homo sapiens) (UniProt P45984). Description: Inhibition of JNK2 (unknown origin) at 1000 nM incubated for 1 hrs by active site-directed competition binding assay relative to control.
The target in data set [5] is Mitogen-activated protein kinase 11 (Homo sapiens) (UniProt Q15759). Description: Inhibition of P38beta (unknown origin) at 1000 nM incubated for 1 hrs by active site-directed competition binding assay relative to control.
In data set [6] the target is Mitogen-activated protein kinase 12 (Homo sapiens) (UniProt P53778). Put plainly: Inhibition of P38gamma (unknown origin) at 1000 nM incubated for 1 hrs by active site-directed competition binding assay relative to control.
The target in data set [7] is Mitogen-activated protein kinase 13 (Homo sapiens) (UniProt O15264). Put plainly: Inhibition of P38delta (unknown origin) at 1000 nM incubated for 1 hrs by active site-directed competition binding assay relative to control.
Data set [8] in a line: Inhibition of N-terminal His-tagged recombinant human TAK1(1 to 303 residues) expressed in Sf21 insect cells preincubated for 10 min followed by inactive MEK1 and ATP addition and measured after 90 min by Envision2104 Multilabel Reader analysis.
Data set [9] deals with Mitogen-activated protein kinase kinase kinase kinase 1 (Mus musculus) (UniProt P70218). Description: In vivo inhibition of HPK1 in female BALB/c mouse assessed as reduction in SLP76 phosphorylation in spleen at 100 mg/kg qd, ip and measured after 3 hrs post dosing by Western blot analysis relative to control. It is filed as functional, organism-based.
The test system of a further data set is CT26. Put plainly: Antitumor activity against mouse CT26 cells allografted in female BALB/c mouse assessed as tumor growth inhibition at 30 mg/kg, administered orally twice daily for 2 weeks. Type of data set: functional. Particulars: CT26, 336 h, route po, read-out: TGI.
The target in data set [10] is Tyrosine-protein kinase Lck (Homo sapiens) (UniProt P06239). Put plainly: Inhibition of LCK (unknown origin) at 1000 nM incubated for 1 hrs by active site-directed competition binding assay relative to control; values are per cent of control.
Data set [11] deals with RAC-beta serine/threonine-protein kinase (Homo sapiens) (UniProt P31751). Description: Inhibition of AKT2 (unknown origin) at 1000 nM incubated for 1 hrs by active site-directed competition binding assay relative to control; values are per cent of control.
The target of data set [12] is Mitogen-activated protein kinase kinase kinase 1 (Homo sapiens) (UniProt Q13233). Description: Inhibition of MAP3K1 (unknown origin) at 1000 nM incubated for 1 hrs by active site-directed competition binding assay relative to control; values are per cent of control.
Mitogen-activated protein kinase kinase kinase 1 (Homo sapiens), sequence (Q13233 whole entry): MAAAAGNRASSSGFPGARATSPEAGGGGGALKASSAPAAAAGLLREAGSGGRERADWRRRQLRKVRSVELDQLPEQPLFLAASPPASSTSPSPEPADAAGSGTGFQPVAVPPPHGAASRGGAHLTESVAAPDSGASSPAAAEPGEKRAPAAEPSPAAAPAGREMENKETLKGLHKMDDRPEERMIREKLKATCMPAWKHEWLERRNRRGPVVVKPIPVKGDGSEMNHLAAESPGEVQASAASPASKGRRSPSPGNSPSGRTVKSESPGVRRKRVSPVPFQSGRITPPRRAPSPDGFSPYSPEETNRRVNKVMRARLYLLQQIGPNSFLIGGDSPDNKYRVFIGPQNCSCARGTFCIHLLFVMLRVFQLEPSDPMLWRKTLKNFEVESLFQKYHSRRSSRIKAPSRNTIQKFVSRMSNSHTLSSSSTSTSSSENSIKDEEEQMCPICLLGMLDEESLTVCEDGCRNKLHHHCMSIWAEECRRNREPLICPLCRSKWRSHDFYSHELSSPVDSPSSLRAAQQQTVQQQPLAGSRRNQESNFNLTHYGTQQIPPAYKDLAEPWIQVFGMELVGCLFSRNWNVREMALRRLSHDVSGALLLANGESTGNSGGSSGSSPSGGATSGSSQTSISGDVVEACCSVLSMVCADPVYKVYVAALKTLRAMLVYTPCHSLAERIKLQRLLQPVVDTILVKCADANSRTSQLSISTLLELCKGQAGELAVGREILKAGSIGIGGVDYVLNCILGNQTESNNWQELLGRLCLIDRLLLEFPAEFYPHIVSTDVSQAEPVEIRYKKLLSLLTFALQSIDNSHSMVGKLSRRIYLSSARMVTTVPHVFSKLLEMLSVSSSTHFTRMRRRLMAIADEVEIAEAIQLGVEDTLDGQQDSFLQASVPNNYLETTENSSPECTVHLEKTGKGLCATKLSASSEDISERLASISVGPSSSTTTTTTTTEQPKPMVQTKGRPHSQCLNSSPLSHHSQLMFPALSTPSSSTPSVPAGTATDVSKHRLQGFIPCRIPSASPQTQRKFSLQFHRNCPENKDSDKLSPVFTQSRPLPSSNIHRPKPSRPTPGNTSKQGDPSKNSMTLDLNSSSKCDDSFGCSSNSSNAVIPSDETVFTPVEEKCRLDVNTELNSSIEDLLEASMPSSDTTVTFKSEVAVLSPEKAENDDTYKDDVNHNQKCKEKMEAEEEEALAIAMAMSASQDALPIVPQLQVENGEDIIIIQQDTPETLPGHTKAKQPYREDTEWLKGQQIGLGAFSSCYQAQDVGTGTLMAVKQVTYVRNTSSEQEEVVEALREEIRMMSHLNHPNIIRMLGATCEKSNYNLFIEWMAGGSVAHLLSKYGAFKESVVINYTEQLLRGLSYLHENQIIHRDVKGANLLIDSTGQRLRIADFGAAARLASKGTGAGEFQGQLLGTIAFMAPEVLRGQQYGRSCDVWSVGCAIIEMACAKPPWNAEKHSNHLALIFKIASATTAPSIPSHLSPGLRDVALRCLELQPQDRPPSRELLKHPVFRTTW

Mitogen-activated protein kinase 11 (Homo sapiens), sequence (Q15759 whole entry): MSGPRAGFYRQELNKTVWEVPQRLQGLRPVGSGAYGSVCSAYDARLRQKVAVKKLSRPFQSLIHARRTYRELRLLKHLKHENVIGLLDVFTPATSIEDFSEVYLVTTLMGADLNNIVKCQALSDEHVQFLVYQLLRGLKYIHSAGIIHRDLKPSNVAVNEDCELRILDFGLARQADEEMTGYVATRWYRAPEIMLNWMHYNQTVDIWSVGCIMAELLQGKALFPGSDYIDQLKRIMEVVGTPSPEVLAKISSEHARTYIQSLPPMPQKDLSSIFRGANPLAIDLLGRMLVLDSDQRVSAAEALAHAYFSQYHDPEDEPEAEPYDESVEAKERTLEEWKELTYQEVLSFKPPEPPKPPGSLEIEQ
Mitogen-activated protein kinase 13 (Homo sapiens), sequence (O15264 whole entry, the tested form may be a part): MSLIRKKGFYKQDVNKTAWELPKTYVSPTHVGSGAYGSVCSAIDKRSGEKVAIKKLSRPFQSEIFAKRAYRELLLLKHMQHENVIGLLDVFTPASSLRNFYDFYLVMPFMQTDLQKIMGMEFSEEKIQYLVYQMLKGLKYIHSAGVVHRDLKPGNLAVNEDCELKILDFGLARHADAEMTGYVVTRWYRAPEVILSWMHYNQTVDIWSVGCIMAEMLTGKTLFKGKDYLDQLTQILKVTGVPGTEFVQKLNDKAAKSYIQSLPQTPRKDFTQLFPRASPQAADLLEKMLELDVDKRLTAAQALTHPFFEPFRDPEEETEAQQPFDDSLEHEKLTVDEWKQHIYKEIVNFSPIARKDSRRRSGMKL
Mitogen-activated protein kinase 1 (Homo sapiens), sequence (P28482 whole entry): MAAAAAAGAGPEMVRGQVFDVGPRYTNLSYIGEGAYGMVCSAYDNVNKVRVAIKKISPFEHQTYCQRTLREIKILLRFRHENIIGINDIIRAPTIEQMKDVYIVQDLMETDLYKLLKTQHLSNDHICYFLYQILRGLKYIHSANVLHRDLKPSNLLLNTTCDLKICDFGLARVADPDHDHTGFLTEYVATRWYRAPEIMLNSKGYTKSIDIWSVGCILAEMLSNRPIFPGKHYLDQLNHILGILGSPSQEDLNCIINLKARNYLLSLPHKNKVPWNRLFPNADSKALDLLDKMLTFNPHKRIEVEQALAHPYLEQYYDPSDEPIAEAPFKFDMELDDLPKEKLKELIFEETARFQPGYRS
Mitogen-activated protein kinase 12 (Homo sapiens), sequence (P53778 whole entry): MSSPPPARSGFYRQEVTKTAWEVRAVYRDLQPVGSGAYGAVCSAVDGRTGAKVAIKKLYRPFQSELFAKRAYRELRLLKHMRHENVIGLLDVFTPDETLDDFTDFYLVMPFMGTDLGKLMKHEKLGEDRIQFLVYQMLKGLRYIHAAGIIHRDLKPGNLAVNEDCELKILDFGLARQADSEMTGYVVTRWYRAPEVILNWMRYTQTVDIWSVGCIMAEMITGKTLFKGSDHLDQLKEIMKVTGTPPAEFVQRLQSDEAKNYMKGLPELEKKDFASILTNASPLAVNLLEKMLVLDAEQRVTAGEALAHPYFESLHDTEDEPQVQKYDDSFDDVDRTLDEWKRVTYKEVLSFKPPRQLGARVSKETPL
RAC-beta serine/threonine-protein kinase (Homo sapiens), sequence (P31751 whole entry): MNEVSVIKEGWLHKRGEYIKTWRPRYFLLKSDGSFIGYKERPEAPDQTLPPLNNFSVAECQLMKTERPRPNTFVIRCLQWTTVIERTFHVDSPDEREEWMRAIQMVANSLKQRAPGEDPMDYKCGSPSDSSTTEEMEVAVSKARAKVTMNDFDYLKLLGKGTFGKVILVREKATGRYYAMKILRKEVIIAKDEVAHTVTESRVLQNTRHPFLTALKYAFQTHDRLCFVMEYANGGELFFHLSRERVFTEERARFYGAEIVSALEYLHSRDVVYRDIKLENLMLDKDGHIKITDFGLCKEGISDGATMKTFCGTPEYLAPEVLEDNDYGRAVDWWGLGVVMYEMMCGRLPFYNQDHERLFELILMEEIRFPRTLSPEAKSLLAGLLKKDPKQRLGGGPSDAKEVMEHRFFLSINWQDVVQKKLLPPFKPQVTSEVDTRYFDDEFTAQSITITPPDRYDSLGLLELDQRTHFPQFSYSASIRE
Mitogen-activated protein kinase 9 (Homo sapiens), sequence (P45984 whole entry, looked up): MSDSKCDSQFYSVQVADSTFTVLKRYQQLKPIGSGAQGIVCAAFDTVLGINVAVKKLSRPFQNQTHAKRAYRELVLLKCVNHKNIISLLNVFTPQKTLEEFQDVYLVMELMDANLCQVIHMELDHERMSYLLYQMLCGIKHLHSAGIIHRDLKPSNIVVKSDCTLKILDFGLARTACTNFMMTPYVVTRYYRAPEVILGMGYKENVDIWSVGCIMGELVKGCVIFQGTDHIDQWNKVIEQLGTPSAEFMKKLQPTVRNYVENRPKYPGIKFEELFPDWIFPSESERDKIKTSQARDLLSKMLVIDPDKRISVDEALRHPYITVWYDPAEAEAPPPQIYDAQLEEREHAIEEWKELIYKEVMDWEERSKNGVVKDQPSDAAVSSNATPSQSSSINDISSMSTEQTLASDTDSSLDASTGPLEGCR
Mitogen-activated protein kinase kinase kinase kinase 1 (Mus musculus), sequence (P70218 whole entry): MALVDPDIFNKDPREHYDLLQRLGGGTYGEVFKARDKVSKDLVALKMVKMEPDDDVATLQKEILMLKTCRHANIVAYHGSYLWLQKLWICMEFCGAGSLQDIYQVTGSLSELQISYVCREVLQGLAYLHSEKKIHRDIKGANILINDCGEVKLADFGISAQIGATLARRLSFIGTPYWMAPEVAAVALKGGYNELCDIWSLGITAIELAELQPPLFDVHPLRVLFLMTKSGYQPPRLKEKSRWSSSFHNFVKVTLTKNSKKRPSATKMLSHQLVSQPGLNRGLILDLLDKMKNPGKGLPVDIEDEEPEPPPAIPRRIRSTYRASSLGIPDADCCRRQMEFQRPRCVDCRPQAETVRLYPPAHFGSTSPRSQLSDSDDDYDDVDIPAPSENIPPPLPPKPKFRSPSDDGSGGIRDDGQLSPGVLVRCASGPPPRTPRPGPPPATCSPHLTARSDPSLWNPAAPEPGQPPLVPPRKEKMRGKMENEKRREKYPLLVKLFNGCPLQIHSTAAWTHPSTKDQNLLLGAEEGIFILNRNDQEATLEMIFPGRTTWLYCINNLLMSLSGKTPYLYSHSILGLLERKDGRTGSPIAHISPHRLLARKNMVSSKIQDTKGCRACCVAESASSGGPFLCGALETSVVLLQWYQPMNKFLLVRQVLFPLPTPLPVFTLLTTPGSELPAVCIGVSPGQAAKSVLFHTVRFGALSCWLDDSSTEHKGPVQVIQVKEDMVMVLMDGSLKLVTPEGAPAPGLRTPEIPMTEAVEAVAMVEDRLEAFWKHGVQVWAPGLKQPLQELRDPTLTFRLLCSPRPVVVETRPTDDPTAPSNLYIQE

In the case of `O=c1[nH]ccc2c(-c3cnc4cc(F)ccn34)ccc(Nc3ccc(C4CCOCC4)c(CN4CC[C@H](F)C4)n3)c12`, the half-life in data set [1] was 48 min. For the same molecule, the inhibition came to 69% in data set [2]; 96% in data set [3]; 86% in data set [4]; 84% in data set [5]; 36% in data set [6]; 62% in data set [7]. Also, in data set [9], the inhibition is 100%. In addition, the IC50 in data set [8] worked out at 4.74 µM. In addition, the inhibition in vivo at 30 mg/kg in the data set with CT26 is 42%. In addition, the percent of control in data set [10], in [11] and in data set [12] was 100% each time.
